Laboratory results published in patent publication US20180044343A1, “BICYCLIC IMIDAZOLO DERIVATIVE” (Sumitomo Dainippon Pharma Co., Ltd., priority 2015, published 2018).

Target: PDE1B (Homo sapiens, UniProt Q01064)
Assay: In vitro HTRF PDE1 inhibition assay (PDE1B)
Format: biochemical
Conditions: not given

Chain of PDE1B (Q01064 whole entry): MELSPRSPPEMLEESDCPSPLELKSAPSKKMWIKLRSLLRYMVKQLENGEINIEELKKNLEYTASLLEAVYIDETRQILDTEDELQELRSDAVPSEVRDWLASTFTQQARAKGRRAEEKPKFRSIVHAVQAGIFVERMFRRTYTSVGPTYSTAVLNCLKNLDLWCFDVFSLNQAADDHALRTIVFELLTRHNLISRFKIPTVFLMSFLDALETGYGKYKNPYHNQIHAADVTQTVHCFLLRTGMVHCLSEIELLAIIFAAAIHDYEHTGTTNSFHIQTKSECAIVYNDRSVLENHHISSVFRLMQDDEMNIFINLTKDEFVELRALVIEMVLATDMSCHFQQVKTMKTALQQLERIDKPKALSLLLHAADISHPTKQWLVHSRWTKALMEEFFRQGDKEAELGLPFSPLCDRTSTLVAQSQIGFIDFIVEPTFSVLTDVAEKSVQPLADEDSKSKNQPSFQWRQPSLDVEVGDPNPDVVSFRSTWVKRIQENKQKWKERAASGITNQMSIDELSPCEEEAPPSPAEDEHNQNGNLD

| Structure (SMILES) | IC50 [µM] |
| --- | --- |
| Cc1ccc([C@H]2CCCN2c2nn3c(C(C)C)ncc3c(=O)n2C)cn1 [Example 216, 3-Methyl-2-[(2R)-2-(6-methylpyridin-3-yl)pyrrolidin-1-yl]-7-(propan-2-yl)imidazo[5,1-f][1,2,4]triazin-4(3H)-one] | < 1 |

Same assay, conditions: in vitro PDE1B HTRF Assay; read-out: IC50

| IC50 [µM] | Structure (SMILES) |
| --- | --- |
| < 1 | CC(C)c1ncc2c(=O)n(C)c(OCC(F)(F)F)nn12 [Example 9] |
| < 1 | CO[C@@H]1CCN(c2nn3c(C4CCOCC4)ncc3c(=O)n2C)C1 [Example 188] |
| < 1 | Cn1c(N2CCCCC2)nn2c(C3CCOCC3)ncc2c1=O [Example 184] |
| < 1 | CCn1c(NCc2ncccc2F)nn2c(C(C)C)ncc2c1=O [Example 174] |
| < 1 | CC(C)Oc1nn2c(C3CCOCC3)ncc2c(=O)n1CC1CCC(F)(F)CC1 [Example 103] |
| < 1 | O=c1c2cnc(C3CCOCC3)n2nc(OCc2ccc(-c3ccccn3)cc2)n1CC1CC1 [Example 97] |
| 1 to 10 | CC(C)c1ncc2c(=O)n(C)c(NCc3ccc(F)cn3)nn12 [Example 154] |
| < 1 | CCn1c(OCc2ccc(-c3ccc(C#N)cc3)cc2)nn2c(C3CCOCC3)ncc2c1=O [Example 85] |
| < 1 | Cn1c(CN2Cc3ccccc3C2=O)nn2c(C3CCCC3)ncc2c1=O [Example 231, 7-Cyclopentyl-3-methyl-2-[(1-oxo-1,3-dihydro-2H-isoindol-2-yl)methyl]imidazo[5,1-f][1,2,4]triazin-4(3H)-one] |
| < 1 | CC(C)c1ncc2c(=O)n(C)c(CN(C)c3ccc(C(F)(F)F)cc3)nn12 [Example 230, 3-Methyl-2-({methyl[4-(trifluoromethyl)phenyl]amino}methyl)-7-(propan-2-yl)imidazo[5,1-f][1,2,4]triazin-4(3H)-one] |
| 10 to 100 | CCn1c(OCC2CCC(F)(F)CC2)nn2c(N3CCCC3)ncc2c1=O [Example 332, 2-[(4,4-Difluorocyclohexyl)methoxy]-3-ethyl-7-(pyrrolidin-1-yl)imidazo[5,1-f][1,2,4]triazin-4(3H)-one] |
| < 1 | Cn1c(CN2C(=O)c3ccccc3C2=O)nn2c(C3CCCC3)ncc2c1=O [Example 234] |
| < 1 | CC(C)c1ncc2c(=O)[nH]c(N3CCCC3c3cccc(Cl)c3)nn12 (stereo not drawn) [Example 133] |
| < 1 | COc1nn2c(C3CCOCC3)ncc2c(=O)n1Cc1ccccc1 [Example 107] |
| 10 to 100 | COCCN1CCCN(c2nn3c(C4CCOCC4)ncc3c(=O)n2C)CC1 [Example 220, 2-[4-(2-Methoxyethyl)-1,4-diazepan-1-yl]-3-methyl-7-(tetrahydro-2H-pyran-4-yl)imidazo[5,1-f][1,2,4]triazin-4(3H)-one] |
| < 1 | CCn1c(NCc2ccc(F)cn2)nn2c(C(C)C)ncc2c1=O [Example 171] |

| IC50 [µM] | Structure (SMILES) |
| --- | --- |
| < 1 | Cn1c(NCCc2ccccn2)nn2c(C3CCOCC3)ncc2c1=O [Example 182] |
| < 1 | CCn1c(OCc2ccc(-c3ccccn3)cc2)nn2c(C3CCOCC3)ncc2c1=O [Example 67] |
| < 1 | Cn1c(OCc2ccc(F)cc2)nn2c(C3CCOCC3)nc(Cl)c2c1=O [Example 117, 5-Chloro-2-[(4-fluorobenzyl)oxy]-3-methyl-7-(tetrahydro-2H-pyran-4-yl)imidazo[5,1-f][1,2,4]triazin-4(3H)-one] |
| < 1 | CC(C)c1ncc2c(=O)n(C)c(CN3CCCc4cc(Cl)ccc43)nn12 [Example 229, 2-[(6-Chloro-3,4-dihydroquinolin-1(2H)-yl)methyl]-3-methyl-7-(propan-2-yl)imidazo[5,1-f][1,2,4]triazin-4(3H)-one] |
| < 1 | Cn1c(OCc2ccc(C(F)(F)F)cc2)nn2c(C3CCOCC3)ncc2c1=O [Example 292] |
| < 1 | Cn1c(OCC2(C(F)(F)F)CCCCC2)nn2c(C3CCOCC3)ncc2c1=O [Example 297] |
| < 1 | CCOc1nn2c(C3CCOCC3)ncc2c(=O)n1CC1CCC(F)(F)CC1 [Example 102] |
| < 1 | O=c1c2cnc(C3CCOCC3)n2nc(OCc2ccc(F)cc2)n1CC1CC1 [Example 99] |
| 1 to 10 | CC(C)c1ncc2c(=O)n(C)c(COc3ccc(Cl)cc3)nn12 [Example 223, 2-[(4-Chlorophenoxy)methyl]-3-methyl-7-(propan-2-yl)imidazo[5,1-f][1,2,4]triazin-4(3H)-one] |
| < 1 | CCn1c(OCc2ccc(-c3ccc(OC)cc3)cc2)nn2c(C3CCOCC3)ncc2c1=O [Example 83] |
| < 1 | CC(C)c1ncc2c(=O)n(C)c(OCc3ccncc3)nn12 [Example 15] |
| < 1 | Cc1ccc([C@@H]2CCCN2c2nn3c(C(C)C)ncc3c(=O)n2C)nc1 [Example 219, 3-Methyl-2-[(2S)-2-(5-methylpyridin-2-yl)pyrrolidin-1-yl]-7-(propan-2-yl)imidazo[5,1-f][1,2,4]triazin-4(3H)-one] |
| < 1 | CCn1c(OC(C)C2CCC(F)(F)CC2)nn2c(C3CCOCC3)ncc2c1=O (stereo not drawn) [Example 92] |
| < 1 | COc1cccc(Cn2c(OC)nn3c(C4CCOCC4)ncc3c2=O)c1 [Example 266] |
| < 1 | CCn1c(OC[C@H]2CC[C@H](COC)CC2)nn2c(C3CCOCC3)ncc2c1=O [Example 287] |
| < 1 | CC(C)c1ncc2c(=O)n(C)c(NCc3ccc(C#N)cc3)nn12 [Example 142] |

Second part, the compound before the results:

| Structure (SMILES) | IC50 [µM] |
| --- | --- |
| CCOC[C@H]1CC[C@@H](Oc2nn3c(C4CCOCC4)ncc3c(=O)n2C)CC1 [Example 320] | < 1 |
| Cn1c(OCC2CCOCC2)nn2c(C3CCC3)ncc2c1=O [Example 111] | < 1 |
| Cn1c(N2CCCC2)nn2c(C3CCOCC3)ncc2c1=O [Example 183] | < 1 |
| CC(C)Cn1c(N2CCCC2)nn2c(C3CCOCC3)ncc2c1=O [Example 208] | 1 to 10 |
| CCn1c(OCC2(c3ccccc3)CC2)nn2c(C3CCOCC3)ncc2c1=O [Example 82] | < 1 |
| CCn1c(OCC(C)C)nn2c(C3CCOCC3)ncc2c1=O [Example 55] | < 1 |
| CC(C)c1ncc2c(=O)n(C)c(NCc3ccc(Cl)cc3F)nn12 [Example 146] | < 1 |
| Cn1c(OC[C@H]2CC[C@H](C(F)(F)F)CC2)nn2c(C3(O)CCOCC3)ncc2c1=O [Example 326, 7-(4-hydroxytetrahydro-2H-pyran-4-yl)-3-methyl-2-{[trans-4-(trifluoromethyl)cyclohexyl]-methoxy}imidazo[5,1-f][1,2,4]triazin-4(3H)-one] | 1 to 10 |
| COCCN1CCN(c2nn3c(C4CCOCC4)ncc3c(=O)n2C)CC1 [Example 186] | < 1 |
| Cn1c(NCc2ccccn2)nn2c(C3CCOCC3)ncc2c1=O [Example 181] | < 1 |
| Cn1c(O[C@H]2CC[C@H](C(F)(F)F)CC2)nn2c(C3CCOCC3)ncc2c1=O [Example 305, 3-methyl-7-(tetrahydro-2H-pyran-4-yl)-2-{[trans-4-(trifluoromethyl)cyclohexyl]oxy}-imidazo[5,1-f][1,2,4]triazin-4(3H)-one] | < 1 |
| COC[C@H]1CC[C@H](Oc2nn3c(C4CCOCC4)ncc3c(=O)n2C)CC1 [Example 316] | < 1 |
| Cn1c(OC2CCCC2)nn2c(C3CCOCC3)ncc2c1=O [Example 299] | < 1 |
| CC(C)c1ncc2c(=O)n(C)c(NC(C)(C)c3ccccn3)nn12 [Example 162] | 1 to 10 |
| CCCn1c(N2CCCC2)nn2c(C3CCOCC3)ncc2c1=O [Example 199] | < 1 |
| CCn1c(OCC2(C(F)(F)F)CCCC2)nn2c(C3CCOCC3)ncc2c1=O [Example 296] | < 1 |
| CC(C)c1ncc2c(=O)n(C)c(NCc3ccccc3)nn12 [Example 139] | < 1 |
| CCn1c(OCCc2ccncc2)nn2c(C3CCOCC3)ncc2c1=O [Example 60] | < 1 |
| O=c1c2cnc(C3CCOCC3)n2nc(OCCc2ccc(Cl)cc2)n1CC1CC1 [Example 98] | < 1 |
| Cc1cccc(CNc2nn3c(C(C)C)ncc3c(=O)n2C)n1 [Example 137, 3-Methyl-2-{[(6-methylpyridin-2-yl)methyl]amino}-7-(propan-2-yl)imidazo[5,1-f][1,2,4]triazin-4(3H)-one] | < 1 |

| Structure (SMILES) | IC50 [µM] |
| --- | --- |
| CC(C)c1ncc2c(=O)n(C)c(NC3CCCc4cc(Cl)ccc43)nn12 (stereo not drawn) [Example 147] | < 1 |
| Cn1c(OCC2(C(F)(F)F)CCCC2)nn2c(C3CCOCC3)ncc2c1=O [Example 295] | < 1 |
| CC(C)c1ncc2c(=O)n(C)c(N3CCC[C@@H]3c3ccc(Cl)cc3)nn12 [Example 164] | < 1 |
| COc1nn2c(C3CCOCC3)ncc2c(=O)n1CC1CCCCC1 [Example 275] | < 1 |
| CC(C)c1ncc2c(=O)n(C)c(OCc3cccnc3)nn12 [Example 5] | < 1 |
| COc1ccc(CNc2nn3c(C(C)C)ncc3c(=O)n2C)nc1 [Example 135, 2-{[(5-Methoxypyridin-2-yl)methyl]amino}-3-methyl-7-(propan-2-yl)imidazo[5,1-f][1,2,4]triazin-4(3H)-one] | < 1 |
| O=c1c2cnc(C3CCOCC3)n2nc(N2CCCC2)n1CCC(F)(F)F [Example 209] | 10 to 100 |
| CCn1c(OCCc2ccc(-c3ccccc3)cc2)nn2c(C3CCOCC3)ncc2c1=O [Example 77] | < 1 |
| CCn1c(OCc2ccc(F)c(F)c2)nn2c(C3CCOCC3)ncc2c1=O [Example 59] | < 1 |
| CCn1c(OCC2CC(F)(F)C2)nn2c(C3CCOCC3)ncc2c1=O [Example 87] | < 1 |
| CC(C)c1ncc2c(=O)n(C)c(NC3CCc4ccccc43)nn12 (stereo not drawn) [Example 143] | < 1 |
| CCn1c(OCC2(C)COC2)nn2c(C3CCOCC3)ncc2c1=O [Example 58] | < 1 |
| CCn1c(OCCCc2ccccn2)nn2c(C3CCOCC3)nc(Cl)c2c1=O [Example 118] | < 1 |
| COc1nn2c(C3CCOCC3)ncc2c(=O)n1Cc1ccc(F)cn1 [Example 269] | < 1 |
| O=c1c2cnc(C3CCOCC3)n2nc(OCC2CCC(F)(F)CC2)n1CC1CC1 [Example 100] | < 1 |
| CCn1c(NCc2ccc(C#N)cn2)nn2c(C(C)C)ncc2c1=O [Example 175] | < 1 |
| CCn1c(OC[C@H]2CC[C@@H](OC)CC2)nn2c(C3CCOCC3)ncc2c1=O [Example 90] | < 1 |
| Cn1c(N2CCOCC2)nn2c(C3CCOCC3)ncc2c1=O [Example 185] | < 1 |
| CCO[C@H]1CC[C@@H](COc2nn3c(C4CCOCC4)ncc3c(=O)n2CC)CC1 [Example 250] | < 1 |
